Consider 1 compound from US4803197A, “2,1-benzothiazepine-2,2-dioxide-5-carboxylic acid derivatives” (Ciba-Geigy Corporation, priority 1987, dated 1989).

The subject of one test is human neutrophils. The test can be described thus: inhibition of binding of f-MLP to human neutrophils in vitro. Conditions: at a concentration of about 1×10^-6 M; sodium salt. On the procedure:
The inhibition of the chemotactic activation of neutrophils is determined in vitro, e.g. by measuring the inhibition of the binding of f-MLP (formyl-methionylleucyl-phenylalanine) to human neutrophils in vitro as follows:
Human neutrophils are isolated by a modification of the procedure of Ferrante and Thong (J. Immunol. Methods 24:389, 1978). Red cells remaining in the neutrophil preparation are lysed by separate treatments with 0.83% NH4 Cl and 0.1M tris-HCl, pH 7.5. Neutrophils are incubated in Hanks' buffer at 0° C. for 60 minutes with 15 nM ^3 H-f-MLP and test compound. Aliquots of the incubates are filtered and total ^3 H-f-MLP bound is measured. Non-specific binding in the presence of excess non-radioactive f-MLP is substracted, and percent inhibition of binding by the test drug is calculated. Final concentrations of solvents such as dimethylacetamide or ethanol which may be used to dissolve the test compound cannot exceed 1% in the incubation mixture.

Test [1] deals with leukotriene and 5-HETE formation. The test can be described thus: leukotriene and 5-HETE formation in whole blood after oral administration in rats. In kind it is in vivo. The note with it: 50 mg/Kg p.o. Here is the method:
Furthermore inhibition of the formation of leukotrienes and 5-HETE is determined e.g. by measuring their concentration in whole blood after oral administration in rats.

In test [2] the test system is bovine nasal cartilage. Put plainly: bovine nasal cartilage-synovium co-culture model of cartilage matrix degradation. In kind it is cell-based. Conditions: at a concentration of about 1×10^-5 M. On the procedure: The inhibition of cartilage matrix degradation can be determined in vitro in the bovine nasal cartilage-synovium co-culture model of cartilage matrix degradation which is carried out as follows:
The proteoglycan matrix of bovine nasal septum cartilage is labeled in vitro by incorporation of ^35 S into glycosaminoglycan. Cartilage slices are incubated overnight in a sulfate free medium containing ^35 S-sodium sulfate. ^35 S-Labeled cartilage slices are co-cultured with normal synovium explants in multiwell tissue culture plates. After 4 days incubation a 100μl aliquot of medium is counted. Cartilage slices are hydrolyzed and a 100μl aliquot of cartilage hydrolysate is counted. The percent ^35 S released into the medium is determined and the percent inhibition of matrix degradation is calculated.

The subject of the next test is carrageenin pleurisy. The test can be described thus: carrageenin-induced pleurisy model of inflammation in the rat. In kind it is in vivo. Conditions: 10 mg/Kg p.o. Here is the method:
Antiinflammatory activity is determined by measuring the inhibition of the edema and of the mononuclear cell influx after oral administration in the rat model in which pleurisy is first induced by injecting carrageenin into the pleural cavity, e.g. according to A. P. Almeida et al., J. Pharmacol. Exp. Therap. 214, 74 (1980).

For test [3], the system named is bovine nasal cartilage. Put plainly: synovial catabolin-induced degradation of bovine nasal cartilage. In kind it is cell-based. The note with it: at a concentration of about 1×10^-5 M. The source says: The inhibition of cartilage matrix degradation can also be similarly determined by measuring the decrease in proteoglycan release on synovial catabolin-induced degradation of bovine nasal cartilage.

Test [4] relates to accumulation of neutrophils. The test can be described thus: accumulation of neutrophils into carrageenin-impregnated polyurethane sponges in the rat. Conditions: 25 mg/Kg p.o. In kind it is in vivo. The source says:
The inhibition of the chemotactic activation of neutrophils can also be determined in vivo by measuring the inhibition of the accumulation of neutrophils into carrageenin impregnated polyurethane sponges after oral administration in the rat.

In the case of `O=C(Nc1ccc(Cl)cc1)C1=C(O)CS(=O)(=O)N(Cc2ccc(Cl)cc2)c2ccccc21.[Na]` [Example 2, N-(4-chlorophenyl)-1-(4-chlorophenylmethyl)-1,3-dihydro-4-hydroxy-2,1-benzothiazepine-5-carboxamide-2,2-dioxide sodium salt], the “inhibition of the binding of f-MLP to human neutrophils” value with human neutrophils is “effective in inhibiting”. Further, in test [1], the “inhibition of 5-HETE formation in whole rat blood” value is “effectively inhibits” and the “inhibition of leukotriene formation in whole rat blood” value is recorded as “effectively inhibits”. Further, the “inhibition of release of proteoglycan in synovium-induced degradation of cartilage” value with bovine nasal cartilage [2] is listed as “inhibits”. In the test on carrageenin pleurisy, the “inhibition of edema formation in the pleurisy model of inflammation” value was “significantly inhibits” and the “inhibition of mononuclear cell influx in the pleurisy model of inflammation” value is listed as “significantly inhibits”. Besides, the “inhibition of release of proteoglycan in catabolin-induced degradation of cartilage” value in the test on bovine nasal cartilage [3] was “inhibits”. Further, the “accumulation of neutrophils into carrageenin-impregnated sponges” value in test [4] is recorded as “effectively diminishes”.
